{
  "source": "ChEMBL document CHEMBL1134885",
  "about": "“Synthesis and thrombolytic activity of pseudopeptides related to fibrinogen fragment” (2002)",
  "assay_type_in_all_cases": "functional",
  "key": {"Rattus norvegicus [1]": {"tested_on": "Rattus norvegicus", "assay": "The reduction of thrombolytic mass by the compound was calculated at a dose of 7.4 mg/Kg"}, "Rattus norvegicus [2]": {"tested_on": "Rattus norvegicus", "assay": "The reduction of thrombolytic mass by the compound was calculated at a dose of 7.2 mg/Kg"}, "Rattus norvegicus [3]": {"tested_on": "Rattus norvegicus", "assay": "The reduction of thrombolytic mass by the compound was calculated at a dose of 8 mg/kg"}, "Rattus norvegicus [4]": {"tested_on": "Rattus norvegicus", "assay": "The reduction of thrombolytic mass by the compound was calculated at a dose of 5.4 mg/Kg"}, "Rattus norvegicus [5]": {"tested_on": "Rattus norvegicus", "assay": "The reduction of thrombolytic mass by the compound was calculated at a dose of 5.3 mg/Kg"}, "Rattus norvegicus [6]": {"tested_on": "Rattus norvegicus", "assay": "The reduction of thrombolytic mass by the compound was calculated at a dose of 6 mg/kg"}},
  "note": "Square brackets hold non-standard residues; d marks the D form. Peptide text beside a SMILES is read from it. Tpi = O=C(O)[C@@H]1Cc2c([nH]c3ccccc23)CN1",
  "data": [
    {"compound": "C[C@H](NC(=O)[C@@H]1Cc2c([nH]c3ccccc23)CN1)C(=O)N[C@@H](CCCN=C(N)N)C(=O)N1CCC[C@H]1C(=O)N[C@@H](C)C(=O)N[C@@H](CCCCN)C(=O)O", "note": "(H-[Tpi]ARPAK-OH)", "values": [
      {"measurement": "Activity", "setting": "Rattus norvegicus [1]", "result": 16.13, "unit": "mg"}
    ]},
    {"compound": "C[C@H](NC(=O)[C@@H]1CCCN1C(=O)[C@H](CCCN=C(N)N)NC(=O)CNC(=O)[C@@H]1Cc2c([nH]c3ccccc23)CN1)C(=O)N[C@@H](CCCCN)C(=O)O", "note": "(H-[Tpi]GRPAK-OH)", "values": [
      {"measurement": "Activity", "setting": "Rattus norvegicus [2]", "result": 19.7, "unit": "mg"}
    ]},
    {"compound": "C[C@H](NC(=O)[C@@H]1CCCN1C(=O)[C@H](CCCN=C(N)N)NC(=O)[C@H](CCC(N)=O)NC(=O)[C@@H]1Cc2c([nH]c3ccccc23)CN1)C(=O)N[C@@H](CCCCN)C(=O)O", "note": "(H-[Tpi]QRPAK-OH)", "values": [
      {"measurement": "Activity", "setting": "Rattus norvegicus [3]", "result": 17.27, "unit": "mg"}
    ]},
    {"compound": "H-ARPAK-OH", "values": [
      {"measurement": "Activity", "setting": "Rattus norvegicus [4]", "result": 18.84, "unit": "mg"}
    ]},
    {"compound": "H-GRPAK-OH", "values": [
      {"measurement": "Activity", "setting": "Rattus norvegicus [5]", "result": 25.9, "unit": "mg"}
    ]},
    {"compound": "H-QRPAK-OH", "values": [
      {"measurement": "Activity", "setting": "Rattus norvegicus [6]", "result": 21.28, "unit": "mg"}
    ]}
  ]
}
